# PMC11071649, “Synthesis and Selective Anticancer Activity Evaluation of 2-phenylacrylonitrile Derivatives as Tubulin Inhibitors” (Current Medicinal Chemistry, 2024)
# Columns and labels:
# Format in all cases: cell-based, human
# A549 lung cancer cell = assay: MTT anti-proliferative assay, A549; conditions: for IC50: MTT, 48 h
# Experimental: (§1) The anti-proliferation activities of the synthesized analogs were assessed by an in vitro MTT assay conducted on thirteen human cell lines. Their cytotoxic activities were evaluated by measuring the inhibition of net cell growth. […]
# (§2) 1.6. Cell lines and cell culture
# (§3) MTT was purchased from Sigma-Aldrich Co. (St. Louis, MO, USA). The PI and Annexin V-FITC apoptosis detection kit were purchased from Invitrogen (Eugene, OR, USA). All human cell lines were used in this study. […]
# (§4) cell, MCF-7 breast cancer cell, MCF-10A normal breast cell, Raji B lymphoblastoid cell and diffuse large B-cell lymphoma SU-DHL-10 cell were initially purchased from American Type Culture Collection (ATCC, Manassas, Virginia). media, DMEM, and FBS were provided from Gibco Company.
# (§5) 1.7. Cell growth inhibition assay (MTT assay)
# (§6) The experiment was carried out according to the method of reference. Briefly, cells were plated in 96-well plates at a den- […]
# (§7) the anti-proliferative activities were determined by MTT assay. […]
# (§8) (Becton-Dickinson, Franklin Lakes, NJ). […]
# AGS gastric cancer cell = assay: MTT anti-proliferative assay, AGS; conditions: for IC50: MTT, 48 h
# Experimental: as §1, §2, §3, §4, §5, §6, §7, §8
# [1] = test system: BEL-7402 liver cancer cell; assay: MTT anti-proliferative assay, BEL-7402; conditions: for IC50: MTT, 48 h
# Experimental: as §1, §2, §3, §4, §5, §6, §7, §8
# [2] = test system: HCT116 colectal cancer cell; assay: MTT anti-proliferative assay, HCT116; conditions: for IC50: MTT, 48 h, read-out: IC50 HCT-116
# Experimental: as §1, §2, §3, §4, §5, §6, §7, §8
# [3] = test system: HeLa cervical cancer cell; assay: MTT anti-proliferative assay, HeLa; conditions: MTT, 48 h
# Experimental: as §1, §2, §3, §4, §5, §6, §7, §8
# HepG2 hepatoma cell = assay: MTT anti-proliferative assay, HepG2; conditions: for IC50: MTT, 48 h, read-out: IC50 HepG-2
# Experimental: as §1, §2, §3, §4, §5, §6, §7, §8
# L-02 normal liver cell = assay: MTT assay, L-02 normal cells; conditions: 48 h
# Experimental: as §1, §2, §3, §4, §5, §6, §7, §8
# [4] = test system: MGC-803 late stage differentiation gastric cancer cell; assay: MTT anti-proliferative assay, MGC-803; conditions: for IC50: MTT, 48 h
# Experimental: as §1, §2, §3, §4, §5, §6, §7, §8
# MCF-7 breast cancer cell = assay: MTT anti-proliferative assay, MCF-7; conditions: for IC50: MTT, 48 h
# Experimental: as §1, §2, §3, §4, §5, §6, §7, §8
# [5] = test system: MCF-10A normal breast cell; assay: MTT assay, MCF-10A normal cells; conditions: 48 h
# Experimental: as §1, §2, §3, §4, §5, §6, §7, §8
# [6] = test system: Raji B lymphoblastoid cell; assay: MTT anti-proliferative assay, Raji; conditions: for IC50: MTT, 48 h, read-out: IC50 Raji
# Experimental: as §1, §2, §3, §4, §5, §6, §7, §8
# [7] = test system: SGC-7901 early differentiation gastric cancer cell; assay: MTT anti-proliferative assay, SGC-7901; conditions: for IC50: MTT, 48 h
# Experimental: as §1, §2, §3, §4, §5, §6, §7, §8
# [8] = test system: diffuse large B-cell lymphoma SU-DHL-10 cell; assay: MTT anti-proliferative assay, SU-DHL-10; conditions: for IC50: MTT, 48 h, read-out: IC50 SU-DHL-10
# Experimental: as §1, §2, §3, §4, §5, §6, §7, §8
Compound,IC50 (A549 lung cancer cell) [µM],IC50 (AGS gastric cancer cell) [µM],IC50 [1] [µM],IC50 [2] [µM],IC50 [3] [µM],IC50 (HepG2 hepatoma cell) [µM],IC50 (L-02 normal liver cell) [µM],IC50 [4] [µM],IC50 (MCF-7 breast cancer cell) [µM],IC50 [5] [µM],IC50 [6] [µM],IC50 [7] [µM],IC50 [8] [µM],"SI (selectivity index), IC50 (L-02)/IC50 (AGS) (AGS gastric cancer cell)","SI (selectivity index), IC50 (L-02)/IC50 (BEL-7402) [1]","SI (selectivity index), IC50 (L-02)/IC50 (MGC-803) [4]","SI (selectivity index), IC50 (L-02)/IC50 (Raji) [6]",other results
Cc1cc(C)c(/C=C(\C#N)c2ccc(OC(F)(F)F)cc2)c(C)c1 [Compound 1a2r],> 100,> 100,> 100,> 100,> 100,> 100,> 100,> 100,> 100,> 100,> 100,> 100,> 100,,,,,
N#C/C(=C\c1ccc(N2CCOCC2)cc1)c1cccc(OC(F)(F)F)c1 [Compound 1b2i],> 100,23.9 ± 2.7,13 ± 1.1,12.3 ± 1.6,> 100,23.5 ± 4.3,28.5 ± 0.8,10.8 ± 2.9,> 100,79.6 ± 5.7,23.7 ± 2.1,46 ± 4.9,53.6 ± 7.5,> 1.1,> 2.1,> 2.6,> 1.1,"SI (selectivity index), IC50 (L-02)/IC50 (HCT-116) [2]: > 2.3; SI (selectivity index), IC50 (L-02)/IC50 (HepG-2) (HepG2 hepatoma cell): > 1.2"
CCN(CC)c1ccc(/C=C(\C#N)c2cc(OC)c(OC)c(OC)c2)cc1 [Compound 1g2b],> 100,7.5 ± 0.4,0.03 ± 0.01,1 ± 0.1,> 100,> 100,> 100,0.12 ± 0.03,0.45 ± 0.06,0.05 ± 0.001,0.37 ± 0.06,> 100,2.4 ± 0.1,> 13.1,> 3333,> 819,> 270,"SI (selectivity index), IC50 (L-02)/IC50 (HCT-116) [2]: > 96.1; SI (selectivity index), IC50 (L-02)/IC50 (SU-DHL-10) [8]: > 34.0"
CCCCCCOc1ccc(/C=C(\C#N)c2ccc(OC(F)(F)F)cc2)cc1 [Compound 1a2p],> 100,> 100,> 100,> 100,> 100,> 100,> 100,> 100,> 100,> 100,> 100,> 100,> 100,,,,,
COc1cc(/C=C(\C#N)c2ccc(OC(F)(F)F)cc2)cc(OC)c1OC [Compound 1a2l],> 100,> 100,> 100,> 100,> 100,> 100,> 100,> 100,> 100,> 100,> 100,> 100,> 100,,,,,
N#C/C(=C\c1ccccn1)c1ccc(C(F)(F)F)cc1 [Compound 1f3c],> 100,> 100,> 100,87.6 ± 9.1,> 100,> 100,> 100,> 100,> 100,> 100,> 100,> 100,> 100,,,,,"SI (selectivity index), IC50 (L-02)/IC50 (HCT-116) [2]: > 1.1"
N#C/C(=C\c1cccc2ccccc12)c1ccc(C(F)(F)F)cc1 [Compound 1f3d],> 100,> 100,> 100,> 100,> 100,> 100,> 100,> 100,> 100,> 100,> 100,> 100,> 100,,,,,
CCN(CC)c1ccc(/C=C(\C#N)c2ccc(C)cc2)cc1 [Compound 1d2b],> 100,24.1 ± 0.2,65.4 ± 2.5,3.1 ± 0.5,> 100,> 100,> 100,8.6 ± 0.04,52.3 ± 2.2,> 100,11.8 ± 0.4,> 100,42.6 ± 11.4,> 4.1,> 1.5,> 11.5,> 8.4,"SI (selectivity index), IC50 (L-02)/IC50 (HCT-116) [2]: > 32.0; SI (selectivity index), IC50 (MCF-10A)/IC50 (MCF-7) (MCF-7 breast cancer cell): > 1.9; SI (selectivity index), IC50 (L-02)/IC50 (SU-DHL-10) [8]: > 2.3"
CCCCCOc1ccc(/C=C(\C#N)c2ccc(OC(F)(F)F)cc2)cc1 [Compound 1a2o],> 100,> 100,> 100,> 100,> 100,> 100,> 100,> 100,> 100,> 100,> 100,> 100,> 100,,,,,
Cc1cccc(/C=C(\C#N)c2ccc(C(F)(F)F)cc2)c1 [Compound 1f2o],> 100,41.2 ± 1.1,> 100,> 100,> 100,> 100,> 100,> 100,> 100,> 100,> 100,> 100,> 100,,,,,
Cc1ccc(/C=C(\C#N)c2ccccc2OC(F)(F)F)cc1 [Compound 1c2d],50.7 ± 7.4,6.3 ± 0.4,17.4 ± 4.2,> 100,> 100,26.7 ± 10.1,> 100,13.1 ± 3.6,> 100,> 100,60.5 ± 19.1,50.1 ± 5.9,> 100,> 15.6,> 5.7,> 7.6,> 1.6,"SI (selectivity index), IC50 (L-02)/IC50 (A549) (A549 lung cancer cell): > 1.9; SI (selectivity index), IC50 (L-02)/IC50 (HepG-2) (HepG2 hepatoma cell): > 3.7; SI (selectivity index), IC50 (L-02)/IC50 (SGC-7901) [7]: > 1.9"
CC(C)c1ccc(/C=C(\C#N)c2ccc(C(F)(F)F)cc2)cc1 [Compound 1f2q],> 100,> 100,> 100,> 100,> 100,> 100,> 100,> 100,> 100,> 100,34.9 ± 4.5,> 100,38.4 ± 3.6,,,,> 2.8,
N#C/C(=C\c1ccc(Br)cc1)c1ccc(C(F)(F)F)cc1 [Compound 1f2f],> 100,> 100,> 100,> 100,> 100,> 100,> 100,> 100,> 100,> 100,> 100,> 100,> 100,,,,,
N#C/C(=C\c1ccc(Br)cc1)c1cccc(OC(F)(F)F)c1 [Compound 1b2d],> 100,13.9 ± 4.2,14.6 ± 4.6,15.1 ± 2.9,66.8 ± 9.8,34.9 ± 3.2,50.4 ± 0.8,10.1 ± 0.9,> 100,34.1 ± 3.6,16.3 ± 6.1,21.9 ± 3.3,35.6 ± 0.9,> 3.5,> 3.4,> 4.9,> 3.0,"SI (selectivity index), IC50 (L-02)/IC50 (HepG-2) (HepG2 hepatoma cell): > 1.4; SI (selectivity index), IC50 (L-02)/IC50 (SGC-7901) [7]: > 2.3; SI (selectivity index), IC50 (L-02)/IC50 (SU-DHL-10) [8]: > 1.4"
